According to patent US20160106102A1, “KNOWN AND NEW HETEROCYCLIC COMPOUNDS AS PEST CONTROL AGENTS” (BAYER CROPSCIENCE AKTIENGESELLSCHAFT, priority 2013, published 2016):
Read-outs that look alike come from different tables or passages of the source.

What was measured:
Myzus persicae [1] = assay: Myzus persicae - spray test; type: in vivo; settings: application rate of 500 g/ha, after 6 days, sprayed Chinese cabbage leaf discs infested by all stages, 100% = all aphids killed; for pest or weed control at 500 g/ha: Myzus persicae, foliar, 144 h, read-out: efficacy in %
How it was run: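 Chinese cabbage leaf discs infested with all stages of green peach aphid sprayed with compound in acetone/DMF formulation with alkylaryl polyglycol ether emulsifier, diluted in emulsifier-containing water. Efficacy (% aphids killed) assessed after 6 days.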

[2] = log P determination by LC-MS in the acidic range; type: physicochemical; settings: for log P (acid): LC-MS in the acidic range
Source text: The LC-MS determination in the acidic range is effected at pH 2.7 using 0.1% aqueous formic acid and acetonitrile (contains 0.1% formic acid) as eluents, linear gradient from 10% acetonitrile to 95% acetonitrile. Alternatively, the determination is effected in the acidic range at pH 2.3 using 0.1% aqueous phosphoric acid and acetonitrile as eluents; linear gradient from 10% acetonitrile to 95% acetonitrile.

Myzus persicae [3] = assay: Myzus persicae - sachet test; type: in vivo; settings: 100% = all animals killed; for pest or weed control at 6 ppm / pest or weed control at 30 ppm: Myzus persicae, read-out: efficacy (kill in %)
How it was run: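 Active ingredient dissolved with 2% N-methylpyrrolidone and 2% diacetone alcohol, diluted in water, then pipetted into nutrient medium. Plate sealed and paired with a plate carrying green peach aphids. Kill in % scored after the set time (100% = all dead, 0% = none dead).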

[4] = application rate of 6 ppm in nutrient medium
[5] = application rate of 30 ppm in nutrient medium
[6] = pH 2.7, LC-MS in the acidic range, read-out: log P (acid)
[7] = pH 2.7, values given in the synthesis examples and NMR lists, read-out: HPLC-MS: log P

Compound | efficacy in % (Myzus persicae [1]) [%] | log P (acid) [2] | efficacy (kill in %) (Myzus persicae [3]; [4]) [%] | efficacy (kill in %) (Myzus persicae [3]; [5]) [%] | pest or weed control at 500 g/ha (Myzus persicae [1]) [%] | chromatographic logP [2, 6] | chromatographic logP [2, 7] | pest or weed control at 6 ppm (Myzus persicae [3]; [4]) [%] | pest or weed control at 30 ppm (Myzus persicae [3]; [5]) [%]
Cc1cc(NC(=O)c2cccnc2)nn1Cn1ccnn1 [Compound I-1-223] | 100 | 0.65 | 100 | 100 | – | – | – | – | –
Cc1cc(NC(=O)c2cccnc2)nn1Cn1cncn1 [Compound I-1-224] | 100 | 0.58 | 100 | 100 | – | – | – | – | –
Cc1cc(NC(=O)c2cccnc2)nn1Cn1cccn1 [Compound I-1-225] | 100 | 0.94 | 100 | 100 | – | – | – | – | –
Cc1cnn(Cn2nc(NC(=O)c3cccnc3)cc2C)c1 [Compound I-1-226] | 100 | 1.24 | 100 | 100 | – | – | – | – | –
Cc1cc(NC(=O)c2cccnc2)nn1Cn1nccc1C(F)(F)F [Compound I-1-227] | 90 | 1.72 | 100 | 100 | – | – | – | – | –
Cc1cc(NC(=O)c2cccnc2)nn1Cn1ccc(C(F)(F)F)n1 [Compound I-1-228] | 90 | 1.86 | 100 | 100 | – | – | – | – | –
Cc1cc(NC(=O)c2cccnc2)nn1C1CCCC1 [Compound I-1-229] | 90 | 1.74 | 100 | 100 | – | – | – | – | –
Cc1cc(NC(=O)c2cccnc2)nn1S(=O)(=O)N(C)C [Compound I-1-231] | 90 | 1.52 | 100 | 100 | – | – | – | – | –
Cc1cc(NC(=O)c2cccnc2)nn1C(=O)Oc1ccccc1 [Compound I-1-233] | 90 | 2 | 100 | 100 | – | – | – | – | –
Cc1cc(NC(=O)c2cccnc2)nn1CSc1ncccn1 [Compound I-1-234] | 90 | 1.25 | 100 | 100 | – | – | – | – | –
Cc1cc(NC(=O)c2cccnc2)nn1CC1CC1(Cl)Cl (stereo not shown) [Compound I-1-237] | 90 | 1.84 | 100 | 100 | – | – | – | – | –
CC(C)=CCn1nc(NC(=O)c2cccnc2)cc1C [Compound I-1-239] | 90 | 1.75 | 100 | 100 | – | – | – | – | –
CCSCn1nc(NC(=O)c2cccnc2)cc1C [Compound I-1-242, N-{1-[(Ethylsulphanyl)methyl]-5-methyl-1H-pyrazol-3-yl}nicotinamide] | – | – | – | – | 100 | 1.49 | 1.49 | 100 | 100
Cc1cc(NC(=O)c2cccnc2)nn1C[S+](C)[O-] (stereo not shown) [Compound I-1-243] | 100 | 0.19 | 100 | 100 | – | – | – | – | –
Cc1cc(NC(=O)c2cccnc2)nn1CS(C)(=O)=O [Compound I-1-244] | 90 | 0.59 | 100 | 100 | – | – | – | – | –
CC[S+]([O-])Cn1nc(NC(=O)c2cccnc2)cc1C (stereo not shown) [Compound I-1-245] | 100 | 0.45 | 100 | 100 | – | – | – | – | –

Compound | efficacy in % (Myzus persicae [1]) [%] | log P (acid) [2] | efficacy (kill in %) (Myzus persicae [3]; [4]) [%] | efficacy (kill in %) (Myzus persicae [3]; [5]) [%] | pest or weed control at 500 g/ha (Myzus persicae [1]) [%] | chromatographic logP [2, 6] | chromatographic logP [2, 7] | pest or weed control at 6 ppm (Myzus persicae [3]; [4]) [%] | pest or weed control at 30 ppm (Myzus persicae [3]; [5]) [%]
CCS(=O)(=O)Cn1nc(NC(=O)c2cccnc2)cc1C [Compound I-1-246, N-{1-[(Ethylsulphonyl)methyl]-5-methyl-1H-pyrazol-3-yl}nicotinamide] | – | – | – | – | 100 | 0.83 | 0.83 | 100 | 100
Cc1cc(NC(=O)c2cccnc2)nn1C(=O)OCC(F)(F)F [Compound I-1-259] | 90 | 1.79 | 100 | 100 | – | – | – | – | –
Cc1cc(NC(=O)c2cccnc2)nn1CC(=O)C1(Cl)CC1 [Compound I-1-260] | 90 | 1.38 | 100 | 100 | – | – | – | – | –
COCC(=O)n1nc(NC(=O)c2cccnc2)cc1C [Compound I-1-261] | 100 | 1.17 | 100 | 100 | – | – | – | – | –
Cc1cc(N(CC#N)C(=O)c2cccnc2)nn1Cc1ncccn1 [Compound I-1-262] | 90 | 0.84 | 100 | 100 | – | – | – | – | –
C#CCN(C(=O)c1cccnc1)c1cc(C)n(Cc2ncccn2)n1 [Compound I-1-264] | 90 | 0.98 | 100 | 100 | – | – | – | – | –
CSCCC(=O)n1nc(NC(=O)c2cccnc2)cc1C [Compound I-1-266] | 90 | 1.87 | 100 | 100 | – | – | – | – | –
Cc1cc(NC(=O)c2cccnc2)nn1C(=O)CCS(C)(=O)=O [Compound I-1-268] | 100 | 1.04 | 100 | 100 | – | – | – | – | –
Cc1cc(NC(=O)c2cccnc2)nn1S(C)(=O)=O [Compound I-1-277] | 100 | 1.03 | 100 | 100 | – | – | – | – | –
Cc1cc(NC(=O)c2cccnc2)nn1S(=O)(=O)c1ccccn1 [Compound I-1-279] | 90 | 1.51 | 100 | 100 | – | – | – | – | –
Cc1cc(NC(=O)c2cccnc2)nn1Cc1nnc(C(C)(C)C)o1 [Compound I-1-281] | 90 | 1.44 | 80 | 100 | – | – | – | – | –
Cc1cc(Cn2nc(NC(=O)c3cccnc3)cc2C)no1 [Compound I-1-283] | 100 | 1.19 | 100 | 100 | – | – | – | – | –
Cc1cc(NC(=O)c2cccnc2)nn1Cc1noc(C(C)(C)C)n1 [Compound I-1-285] | 90 | 1.71 | 100 | 100 | – | – | – | – | –
Cc1cc(NC(=O)c2cccnc2)nn1Cc1noc(C(=O)N(C)C)n1 [Compound I-1-286] | 100 | 1.03 | 100 | 100 | – | – | – | – | –
Cc1cc(NC(=O)c2cccnc2)nn1C(=O)NC(C)C [Compound I-1-287] | 90 | 1.46 | 100 | 100 | – | – | – | – | –
CCS(=O)(=O)N(C)C(=O)n1nc(NC(=O)c2cccnc2)cc1C [Compound I-1-289] | 90 | 1.5 | 100 | 100 | – | – | – | – | –
